Source: PubChem BioAssay (NCI)
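Five compound concentrations were applied to cells in 96-well plates for 48 hours; endpoints were derived by simple linear interpolation of the resulting dose-response curve. Definition used: TGI = concentration required for complete inhibition of growth.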

Legend:
Assay in all cases: DTP human tumour cell line panel, 48 h
KM12 colon = system: KM12 colon
SF-268 CNS = system: SF-268 CNS
T-47D breast = system: T-47D breast
HT29 colon = system: HT29 colon
UACC-257 melanoma = system: UACC-257 melanoma
MCF7 breast = system: MCF7 breast
NCI-H23 lung = system: NCI-H23 lung
MOLT-4 leukemia = system: MOLT-4 leukemia
SNB-19 CNS = system: SNB-19 CNS
RPMI-8226 leukemia = system: RPMI-8226 leukemia
A498 renal = system: A498 renal
MALME-3M melanoma = system: MALME-3M melanoma
M14 melanoma = system: M14 melanoma
K-562 leukemia = system: K-562 leukemia
LOX IMVI melanoma = system: LOX IMVI melanoma
MDA-MB-231 breast = system: MDA-MB-231 breast
HCT-15 colon = system: HCT-15 colon
TK-10 renal = system: TK-10 renal
NCI-H460 lung = system: NCI-H460 lung
SR leukemia = system: SR leukemia
SNB-75 CNS = system: SNB-75 CNS
NCI-H522 lung = system: NCI-H522 lung
OVCAR-5 ovarian = system: OVCAR-5 ovarian
CCRF-CEM leukemia = system: CCRF-CEM leukemia
NCI-H226 lung = system: NCI-H226 lung
PC-3 prostate = system: PC-3 prostate
DU-145 prostate = system: DU-145 prostate
IGROV1 ovarian = system: IGROV1 ovarian
SK-MEL-2 melanoma = system: SK-MEL-2 melanoma
CAKI-1 renal = system: CAKI-1 renal
HCT-116 colon = system: HCT-116 colon
A549 NSCLC = system: A549 NSCLC
MDA-N = system: MDA-N
SK-MEL-28 melanoma = system: SK-MEL-28 melanoma
SW-620 colon = system: SW-620 colon
BT-549 breast = system: BT-549 breast
OVCAR-8 ovarian = system: OVCAR-8 ovarian
COLO 205 colon = system: COLO 205 colon
UO-31 renal = system: UO-31 renal
OVCAR-3 ovarian = system: OVCAR-3 ovarian
HS 578T breast = system: HS 578T breast
NCI/ADR-RES ovarian = system: NCI/ADR-RES ovarian
ACHN renal = system: ACHN renal
HL-60(TB) leukemia = system: HL-60(TB) leukemia
MDA-MB-435 = system: MDA-MB-435
SK-OV-3 ovarian = system: SK-OV-3 ovarian
HOP-92 NSCLC = system: HOP-92 NSCLC
786-0 renal = system: 786-0 renal
OVCAR-4 ovarian = system: OVCAR-4 ovarian
U251 CNS = system: U251 CNS
RXF 393 renal = system: RXF 393 renal
SN12C renal = system: SN12C renal
SF-295 CNS = system: SF-295 CNS
SF-539 CNS = system: SF-539 CNS
HOP-62 NSCLC = system: HOP-62 NSCLC
EKVX NSCLC = system: EKVX NSCLC
SK-MEL-5 melanoma = system: SK-MEL-5 melanoma

In the case of `COC(=O)CCC(C)[C@H]1CCC2C3C(C[C@H](OC(C)=O)[C@@]21C)[C@@]1(C)CCC2(C[C@H]1C[C@H]3OC(C)=O)OOC1(CCCCCCC1)OO2` (some centres not stated), the TGI (KM12 colon) is reported as greater than 100 µM, the TGI (SF-268 CNS) is reported as greater than 100 µM and the TGI (T-47D breast) is reported as greater than 100 µM. It also gave a TGI (HT29 colon) greater than 100 µM, a TGI (UACC-257 melanoma) greater than 100 µM and a TGI (MCF7 breast) greater than 100 µM. The TGI (NCI-H23 lung) was greater than 100 µM, the TGI (MOLT-4 leukemia) was greater than 100 µM and the TGI (SNB-19 CNS) was greater than 100 µM. The TGI (RPMI-8226 leukemia) was 6.21 µM, the TGI (A498 renal) was greater than 100 µM and the TGI (MALME-3M melanoma) was greater than 100 µM. The TGI (M14 melanoma) was greater than 100 µM, the TGI (K-562 leukemia) was greater than 100 µM and the TGI (LOX IMVI melanoma) was greater than 100 µM. The TGI (MDA-MB-231 breast) was greater than 100 µM, the TGI (HCT-15 colon) was greater than 100 µM and the TGI (TK-10 renal) was greater than 100 µM. The TGI (NCI-H460 lung) was greater than 100 µM, the TGI (SR leukemia) was greater than 100 µM and the TGI (SNB-75 CNS) was greater than 100 µM. It also gave a TGI (NCI-H522 lung) greater than 100 µM, a TGI (OVCAR-5 ovarian) greater than 100 µM and a TGI (CCRF-CEM leukemia) greater than 100 µM. For the same compound, the TGI (NCI-H226 lung) was 50 µM, the TGI (PC-3 prostate) was greater than 100 µM and the TGI (DU-145 prostate) was greater than 100 µM. It also gave a TGI (IGROV1 ovarian) greater than 100 µM, a TGI (SK-MEL-2 melanoma) greater than 100 µM and a TGI (CAKI-1 renal) greater than 100 µM. The TGI (HCT-116 colon) was greater than 100 µM, the TGI (A549 NSCLC) was greater than 100 µM and the TGI (MDA-N) was greater than 100 µM. It also gave a TGI (SK-MEL-28 melanoma) greater than 100 µM, a TGI (SW-620 colon) greater than 100 µM and a TGI (BT-549 breast) greater than 100 µM. The TGI (OVCAR-8 ovarian) was greater than 100 µM, the TGI (COLO 205 colon) was greater than 100 µM and the TGI (UO-31 renal) was 28.8 µM. For the same compound, the TGI (OVCAR-3 ovarian) was greater than 100 µM, the TGI (HS 578T breast) was greater than 100 µM and the TGI (NCI/ADR-RES ovarian) was greater than 100 µM. The TGI (ACHN renal) was greater than 100 µM, the TGI (HL-60(TB) leukemia) was greater than 100 µM and the TGI (MDA-MB-435) was greater than 100 µM. For the same compound, the TGI (SK-OV-3 ovarian) was greater than 100 µM, the TGI (HOP-92 NSCLC) was greater than 100 µM and the TGI (786-0 renal) was greater than 100 µM. It also gave a TGI (OVCAR-4 ovarian) greater than 100 µM, a TGI (U251 CNS) greater than 100 µM and a TGI (RXF 393 renal) greater than 100 µM. It also gave a TGI (SN12C renal) greater than 100 µM, a TGI (SF-295 CNS) greater than 100 µM and a TGI (SF-539 CNS) greater than 100 µM. For the same compound, the TGI (HOP-62 NSCLC) was 52.7 µM, the TGI (EKVX NSCLC) was greater than 100 µM and the TGI (SK-MEL-5 melanoma) was greater than 100 µM.
